From patent publication US20250057844A1, “METHODS OF TREATING NEOPLASTIC DISEASES” (SILLAJEN, INC., priority 2021, published 2025)
Where two headings read alike, the source gives them in different places.

Columns and labels:
biotinylated PLK1 = biotinylated PLK1 (Homo sapiens, UniProt P53350); experiment: Target residence time assay (Biacore T200 surface plasmon resonance), PLK1; format: binding; conditions: SPR, 22° C.
Protocol: The affinity, i.e. the equilibrium dissociation constant (KD) ([…]), of the compound of formula (I) against TTK and PLK1 were determined using a Biacore T200TM surface plasmon resonance instrument using recombinant expressed TTK kinase domain (amino acids 519-808) or biotinylated PLK1. The immobilization of TTK was performed as described in Maia et al. Annals of Oncology, 2015; 26:2180-2192. The immobilization of biotinylated PLKI was performed as described in Willemsen-Seegers et al. Journal of Molecular Biology, 2017; 429:574-586. The subsequent single cycle kinetic assays were performed at 22° C. using a compound concentration gradient of 1, 3.6, 10, 31.6 and 100 nM for TTK and 10, 31.6, 100, 316 and 1000 nM for PLK1, a contact time of 100 s and a flow rate of […]. The dissociation period was 1200-1800 s and a correction for an unstable surface using a blank run with buffer was performed.

[1] = Second PK study: daily oral dose for 5 days, two formulations; format: in vivo, female Swiss Albino mice; conditions: for AUC(0-t): AUC0-24 h
Protocol: In a second study female Swiss Albino mice were administered daily oral dose of 5, 7.5, or 10 mg/kg of the compound of formula (I) for 5 days. […] PK samples were collected on day 5 for groups 1 to 6. Formulation 1 consisted of DMSO, cremophor EL, and 5% mannitol in water (10/10/80; v/v/v). Formulation 2 consisted of ethanol, PEG 400, and citric acid 20 mM (10/10/80; v/v/v). […] In each of the three studies blood was collected via the sephanous vein into K2-EDTA tubes kept on ice until centrifugation at 4° C. Plasma was stored at ap-proximately-80° C. […] PK parameters were calculated using Phoenix® WinNonLin 6.4. PK analysis was based on sparse sampling.

[2] = tested on: tumor patient-derived xenografts (PDX), including TNBC and hepatocellular cancer (HCC) models; experiment: Patient-derived xenografts (PDX) in mice; format: in vivo; conditions: data not shown
[3] = day 5, daily oral 5 mg/kg, Formulation 1, female mice
[4] = day 5, daily oral 5 mg/kg, Formulation 2, female mice
[5] = day 5, daily oral 7.5 mg/kg, Formulation 1, female mice
[6] = day 5, daily oral 7.5 mg/kg, Formulation 2, female mice
[7] = day 5, daily oral 10 mg/kg, Formulation 1, female mice
[8] = day 5, daily oral 10 mg/kg, Formulation 2, female mice
[9] = female, Swiss Albino, mouse, plasma, po, 5 mg/kg, day 5, daily oral 5 mg/kg, Formulation 1, female mice
[10] = female, Swiss Albino, mouse, plasma, po, 5 mg/kg, day 5, daily oral 5 mg/kg, Formulation 2, female mice
[11] = female, Swiss Albino, mouse, plasma, po, 7.5 mg/kg, day 5, daily oral 7.5 mg/kg, Formulation 1, female mice
[12] = female, Swiss Albino, mouse, plasma, po, 7.5 mg/kg, day 5, daily oral 7.5 mg/kg, Formulation 2, female mice
[13] = female, Swiss Albino, mouse, plasma, po, 10 mg/kg, day 5, daily oral 10 mg/kg, Formulation 1, female mice
[14] = female, Swiss Albino, mouse, plasma, po, 10 mg/kg, day 5, daily oral 10 mg/kg, Formulation 2, female mice

Chain of biotinylated PLK1 (P53350 whole entry, the tested form may be a part): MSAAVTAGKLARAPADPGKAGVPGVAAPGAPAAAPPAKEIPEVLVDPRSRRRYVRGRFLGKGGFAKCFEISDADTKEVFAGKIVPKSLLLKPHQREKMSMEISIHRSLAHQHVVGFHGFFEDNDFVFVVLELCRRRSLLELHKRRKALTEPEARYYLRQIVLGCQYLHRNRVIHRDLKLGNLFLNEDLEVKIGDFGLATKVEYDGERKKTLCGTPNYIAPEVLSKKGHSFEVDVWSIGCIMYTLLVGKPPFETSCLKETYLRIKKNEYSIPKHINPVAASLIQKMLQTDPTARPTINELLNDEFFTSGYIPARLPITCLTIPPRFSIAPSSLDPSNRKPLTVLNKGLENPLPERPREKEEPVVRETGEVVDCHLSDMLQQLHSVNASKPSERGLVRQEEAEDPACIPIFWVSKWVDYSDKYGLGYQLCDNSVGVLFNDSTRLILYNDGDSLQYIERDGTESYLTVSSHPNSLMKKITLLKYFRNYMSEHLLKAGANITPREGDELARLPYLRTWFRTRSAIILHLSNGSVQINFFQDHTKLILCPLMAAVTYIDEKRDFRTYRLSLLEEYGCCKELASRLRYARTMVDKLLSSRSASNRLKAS

With `COc1cc(N2CCNCC2)ccc1Nc1ncc2c(n1)-n1ccc(C(=O)Nc3c(C)cccc3C)c1CC2` [compound of formula (I)] the “target-residency on PLK1” value (biotinylated PLK1) was “just a few minutes”, the Tmax ([1]; Swiss Albino, mouse, plasma, day 5, daily oral 5 mg/kg, Formulation 1, female mice, read-out: Tmax) was 2 h and the Tmax ([1]; Swiss Albino, mouse, plasma, day 5, daily oral 7.5 mg/kg, Formulation 1, female mice, read-out: Tmax) was 4 h. For the same compound, the Tmax ([1]; Swiss Albino, mouse, plasma, day 5, daily oral 10 mg/kg, Formulation 1, female mice, read-out: Tmax) was 4 h, the “% extrapolated” value [1, 3] was 8.33% and the AUCinf/Dose [1, 3] was 81.6 ng·h/mL/mg/kg. The AUClast/Dose [1, 3] was 74.8 (h*ng/mL)/(mg/kg), the Cmax/Dose [1, 3] was 5.16 (ng/mL)/(mg/kg) and the “% extrapolated” value [1, 4] was 1.53%. The AUCinf/Dose [1, 4] was 116 ng·h/mL/mg/kg, the AUClast/Dose [1, 4] was 114 (h*ng/mL)/(mg/kg) and the Cmax/Dose [1, 4] was 9.48 (ng/mL)/(mg/kg). The “% extrapolated” value [1, 5] was 5.04%, the AUCinf/Dose [1, 5] was 50 ng·h/mL/mg/kg and the AUClast/Dose [1, 5] was 47.5 (h*ng/mL)/(mg/kg). The Cmax/Dose [1, 5] was 6.03 (ng/mL)/(mg/kg), the “% extrapolated” value [1, 6] was 1.77% and the AUCinf/Dose [1, 6] was 82.4 ng·h/mL/mg/kg. For the same compound, the AUClast/Dose [1, 6] was 80.9 (h*ng/mL)/(mg/kg), the Cmax/Dose [1, 6] was 8.36 (ng/mL)/(mg/kg) and the “% extrapolated” value [1, 7] was 7.41%. The AUCinf/Dose [1, 7] was 60.8 ng·h/mL/mg/kg, the AUClast/Dose [1, 7] was 56.3 (h*ng/mL)/(mg/kg) and the Cmax/Dose [1, 7] was 4.01 (ng/mL)/(mg/kg). The “% extrapolated” value [1, 8] was 12.7%, the AUCinf/Dose [1, 8] was 87 ng·h/mL/mg/kg and the AUClast/Dose [1, 8] was 76 (h*ng/mL)/(mg/kg). The Cmax/Dose [1, 8] was 5.65 (ng/mL)/(mg/kg), the bioavailability ([1]; female, Swiss Albino, mouse, plasma, oral, multiple daily dose administration, based on i.v. exposure, read-out: oral bioavailability) was 18 to 41% and the AUC(0-inf) [1, 9] was 408 ng·h/mL. The Cmax [1, 9] was 25.8 ng/mL, the AUC(0-t) [1, 9] was 374 ng·h/mL and the bioavailability ([1]; female, Swiss Albino, mouse, plasma, po, 5 mg/kg, day 5, daily oral 5 mg/kg, Formulation 1, female mice, based on iv exposure, read-out: F (%)) was 29%. It also gave a half-life at 5 days ([1]; female, Swiss Albino, mouse, plasma, po, 5 mg/kg, day 5, daily oral 5 mg/kg, Formulation 1, female mice, read-out: Apparent T1/2 (converted)) of 7.8 h, an AUC(0-inf) [1, 10] of 579 ng·h/mL and a Cmax [1, 10] of 47.4 ng/mL. The AUC(0-t) [1, 10] was 570 ng·h/mL, the bioavailability ([1]; female, Swiss Albino, mouse, plasma, po, 5 mg/kg, day 5, daily oral 5 mg/kg, Formulation 2, female mice, based on iv exposure, read-out: F (%)) was 41% and the half-life ([1]; female, Swiss Albino, mouse, plasma, po, 5 mg/kg, day 5, daily oral 5 mg/kg, Formulation 2, female mice, read-out: Apparent T1/2 (converted)) was 4.02 h. For the same compound, the AUC(0-inf) [1, 11] was 375 ng·h/mL, the Cmax [1, 11] was 45.2 ng/mL and the AUC(0-t) [1, 11] was 356 ng·h/mL. It also gave a bioavailability ([1]; female, Swiss Albino, mouse, plasma, po, 7.5 mg/kg, day 5, daily oral 7.5 mg/kg, Formulation 1, female mice, based on iv exposure, read-out: F (%)) of 18%, a half-life ([1]; female, Swiss Albino, mouse, plasma, po, 7.5 mg/kg, day 5, daily oral 7.5 mg/kg, Formulation 1, female mice, read-out: Apparent T1/2 (converted)) of 5.31 h and an AUC(0-inf) [1, 12] of 618 ng·h/mL. The Cmax [1, 12] was 62.7 ng/mL, the AUC(0-t) [1, 12] was 607 ng·h/mL and the bioavailability ([1]; female, Swiss Albino, mouse, plasma, po, 7.5 mg/kg, day 5, daily oral 7.5 mg/kg, Formulation 2, female mice, based on iv exposure, read-out: F (%)) was 29%. For the same compound, the half-life ([1]; female, Swiss Albino, mouse, plasma, po, 7.5 mg/kg, day 5, daily oral 7.5 mg/kg, Formulation 2, female mice, read-out: Apparent T1/2 (converted)) was 3.79 h, the AUC(0-inf) [1, 13] was 608 ng·h/mL and the Cmax [1, 13] was 40.1 ng/mL. The AUC(0-t) [1, 13] was 563 ng·h/mL, the bioavailability ([1]; female, Swiss Albino, mouse, plasma, po, 10 mg/kg, day 5, daily oral 10 mg/kg, Formulation 1, female mice, based on iv exposure, read-out: F (%)) was 22% and the half-life ([1]; female, Swiss Albino, mouse, plasma, po, 10 mg/kg, day 5, daily oral 10 mg/kg, Formulation 1, female mice, read-out: Apparent T1/2 (converted)) was 5.81 h. The AUC(0-inf) [1, 14] was 870 ng·h/mL, the Cmax [1, 14] was 56.5 ng/mL and the AUC(0-t) [1, 14] was 760 ng·h/mL. It also gave a bioavailability ([1]; female, Swiss Albino, mouse, plasma, po, 10 mg/kg, day 5, daily oral 10 mg/kg, Formulation 2, female mice, based on iv exposure, read-out: F (%)) of 31%, a half-life ([1]; female, Swiss Albino, mouse, plasma, po, 10 mg/kg, day 5, daily oral 10 mg/kg, Formulation 2, female mice, read-out: Apparent T1/2 (converted)) of 7.66 h and a Tmax ([1]; female, Swiss Albino, mouse, plasma, day 5 of daily oral administration, read-out: median Tmax) of 2 to 4 h. The “activity against PDX” value [2] was “significant activity”.
